By EC50 is commonly meant the concentration needed to bring the measured effect to its halfway point.

2 compounds from US20050187191A1, “Methods and compositions for the treatment of respiratory syncytial virus” (priority 2004, published 2005) can be followed below.

Each structure is given as a SMILES string.

One series concerns RSV (Long strain). Kind of series: RSV plaque assay with Hep-2 cell monolayers. The series is classed as cell-based. To be noted: for EC50: human respiratory syncytial virus, 144 h, Hep-2 cell monolayers, RSV Long strain, 6 days of incubation, 0.4-50 μM in triplicate, read-out: Effective Conc. (EC50) RSV Plaque Count. As to the method:
The ability of the active compounds to inhibit the growth of RSV was determined using a standard plaque assay with Hep-2 cell monolayers. The cell monolayers were infected with RSV (Long strain obtained from the American Tissue Culture Catalog, Cat# VR-26). After one hour of virus attachment, the cells were overlaid with medium containing methyl cellulose with or without serial concentrations of compound (0.4-50 μM). Each concentration was tested in triplicate. After 6 days of incubation, the overlay medium was aspirated and the cells fixed with absolute ethanol and stained with crystal violet to visualize RSV plaques and cell cytotoxicity using a 4× dissecting microscope. To determine the percent inhibition of RSV plaque formation, the mean number of RSV plaques in the presence of compound was divided by the number of RSV plaques in the control without added compounds. The quotient was subtracted from 1 and then multiplied by 100% to establish the % inhibition.

The nature of series [1]: Toxicity test, 3H-thymidine incorporation (total DNA synthesis, cell growth). To be noted: cells in growth phase (cell line not given); 48 hours treatment, 6 hours 3H-thymidine pulse; highest concentration evaluated 100 μM; read-out: Toxic Conc. (TC50) Cell Growth. The series is classed as cell-based. As to the method: Cells in growth phase were treated with serial concentrations of compound for 48 hours and pulse labeled with 3H-thymidine for 6 hours. The cells were then harvested to measure total DNA synthesis in the presence or absence of the compound (Kucera et al., Antiviral Chemistry and Chemotherapy, 9: i57-i65 (1998)).
TC50 determinations were calculated by the method of Chou et al. Elsvier: Amsterdam, 1985, as described in Piantadosi C. et al., Journal of Medicinal Chemistry, 34: 1408-1414 (1991). The TC50 for KPC-15 and KPC-11 were unable to be determined since at the highest concentration evaluated (100 μM), 50% toxicity was not observed. Thus, KPC-15 and KPC-11, lacked significant toxicity in vitro with the TC50>100 μM.

Consider `CCCCCCCCCC(=O)NCC(COP(=O)([O-])OCC[N+](C)(C)C)OCC` (centres unmarked) [KPC-11, decylamido-2-ethoxypropylphosphocholine], for which, in the series with RSV (Long strain), the “SI (Selectivity Index: TC50 Cell Growth divided by EC50 Plaque Inhibition)” value is recorded as over 28, the “in vitro activity against RSV (in words)” value was “potent in vitro activity against RSV” and the EC50 stood at 3.5 µM. Also, in series [1], the CC50 at 48 h is over 100 µM.

`CCCCCCCCCCCC(=O)NCC(COP(=O)([O-])OCC[N+](C)(C)C)OCC` (centres unmarked) [KPC-15, 3-dodecylamido-2-ethoxypropylphosphocholine]: in the series with RSV (Long strain), the “SI (Selectivity Index: TC50 Cell Growth divided by EC50 Plaque Inhibition)” value is listed as over 42, the “in vitro activity against RSV (in words)” value was “potent in vitro activity against RSV” and the 50% effective concentration (EC50) was 2.4 µM. Also, the CC50 at 48 h in series [1] was over 100 µM.
